Measured values published in patent US6277872A, “Oxadiazoles, processes for their preparation and their use as medicaments” (Boehringer Ingelheim KG, priority 1996, dated 2001).

Experiments:
[1] = test system: "Na+ channel site 2"-binding site; assay: Binding to the Na+ channel site 2 binding site ([3H]-BTX); conditions: test concentration typically 10 μM
Procedure: (§1) The tests were typically carried out at a test concentration of 10 μM.

Histamine H1 receptor = biological target: T1, Histamine H1 receptor (Cavia porcellus, UniProt P31389); assay: Histamine H1 receptor binding study; conditions: test concentration typically 10 μM; read-out: H1 Inh. [%]
T1 construct: from tissue
T1 sequence (P31389 whole entry): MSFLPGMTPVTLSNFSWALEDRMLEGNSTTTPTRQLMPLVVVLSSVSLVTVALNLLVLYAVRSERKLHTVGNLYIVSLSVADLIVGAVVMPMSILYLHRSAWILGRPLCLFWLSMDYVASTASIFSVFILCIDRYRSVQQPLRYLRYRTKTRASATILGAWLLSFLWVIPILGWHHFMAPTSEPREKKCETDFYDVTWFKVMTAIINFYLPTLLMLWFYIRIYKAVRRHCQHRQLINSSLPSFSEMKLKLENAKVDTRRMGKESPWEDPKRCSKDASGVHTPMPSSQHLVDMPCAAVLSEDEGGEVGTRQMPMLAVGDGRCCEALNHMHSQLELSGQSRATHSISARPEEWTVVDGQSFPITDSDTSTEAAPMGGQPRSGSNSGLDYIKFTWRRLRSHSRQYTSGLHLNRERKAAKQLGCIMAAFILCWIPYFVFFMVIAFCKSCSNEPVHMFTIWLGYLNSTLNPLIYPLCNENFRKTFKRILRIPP
Text: Table 5 summarises the inhibitory values on the above receptors:

AMPA receptor = assay: Inhibition of the cainate-induced signal at the AMPA receptor, electrophysiology on neuronal cells (Patch-Clamp-Method); assay type: cell-based; conditions: test concentration of 100 μM
Procedure: The tests were carried out at a test concentration of 100 μM.

Sigma receptor = Sigma receptor binding study; conditions: test concentration typically 10 μM
Procedure: as §1

## CN(C)CCOc1ccccc1-c1noc(-c2ccccc2)n1 [Example 3, 3-{2-[2-(N,N-Dimethylamino)ethyl]oxy-phenyl}-5-phenyl-1,2,4-oxadiazole]
[1]
  Na+-channel Inh. [%] ([3H]-BTX): 91%
Histamine H1 receptor
  inhibition at 10 µM: 98%
AMPA receptor
  AMPA Inh. [%] (inhibiting the cainate-induced signal at the AMPA receptor): 96%
Sigma receptor
  Sigma Inh. [%]: 62%

## c1ccc(-c2noc(-c3ccccc3OCCN3CCOCC3)n2)cc1 [Example 4, 5-{2-[2-(Morpholino)ethyl]oxy-phenyl}-3-phenyl-1,2,4-oxadiazole]
[1]
  Na+-channel Inh. [%] ([3H]-BTX): 79%
Histamine H1 receptor
  inhibition at 10 µM: 44%
AMPA receptor
  AMPA Inh. [%] (inhibiting the cainate-induced signal at the AMPA receptor): 71%
Sigma receptor
  Sigma Inh. [%]: 41%

## CN1CCN(CCOc2ccccc2-c2nc(-c3ccccc3)no2)CC1 [Example 5, 5-{2-[2-(4-methylpiperazin-1-yl)ethyl]oxy-phenyl}-3-phenyl-1,2,4-oxadiazole]
[1]
  Na+-channel Inh. [%] ([3H]-BTX): 78%
Histamine H1 receptor
  inhibition at 10 µM: 74%
AMPA receptor
  AMPA Inh. [%] (inhibiting the cainate-induced signal at the AMPA receptor): 84%
Sigma receptor
  Sigma Inh. [%]: 90%

## CN(C)CCOc1ccccc1-c1nc(-c2ccc(O)cc2)no1 [Example 8, 5-{2-[2-(N,N-Dimethylamino)ethyl]oxy-phenyl}-3-(4-hydroxyphenyl)-1,2,4-oxadiazole]
[1]
  Na+-channel Inh. [%] ([3H]-BTX): 87%
Histamine H1 receptor
  inhibition at 10 µM: 94%
AMPA receptor
  AMPA Inh. [%] (inhibiting the cainate-induced signal at the AMPA receptor): 97%
Sigma receptor
  Sigma Inh. [%]: 59%

## CCN(CC)CCOc1ccccc1-c1nc(-c2ccccc2)no1 [Example 12, 5-{2-[2-(N,N-Diethylamino)ethyl]-oxy-phenyl}-3-phenyl-1,2,4-oxadiazole]
[1]
  Na+-channel Inh. [%] ([3H]-BTX): 90%
Histamine H1 receptor
  inhibition at 10 µM: 87%
AMPA receptor
  AMPA Inh. [%] (inhibiting the cainate-induced signal at the AMPA receptor): 85%
Sigma receptor
  Sigma Inh. [%]: 68%

## c1ccc(-c2noc(-c3ccccc3OCCN3CCCC3)n2)cc1 [Example 13, 5-{2-[2-(N-Pyrrolidinyl)ethyl]oxy-phenyl}-3-phenyl-1,2,4-oxadiazole]
[1]
  Na+-channel Inh. [%] ([3H]-BTX): 95%
Histamine H1 receptor
  inhibition at 10 µM: 91%
AMPA receptor
  AMPA Inh. [%] (inhibiting the cainate-induced signal at the AMPA receptor): 96%
Sigma receptor
  Sigma Inh. [%]: 83%

## c1ccc(-c2noc(-c3ccccc3OCCN3CCCCC3)n2)cc1 [Example 14, 5-{2-[2-(N-Piperidinyl)ethyl]oxy-phenyl}-3-phenyl-1,2,4-oxadiazole]
[1]
  Na+-channel Inh. [%] ([3H]-BTX): 100%
Histamine H1 receptor
  inhibition at 10 µM: 87%
AMPA receptor
  AMPA Inh. [%] (inhibiting the cainate-induced signal at the AMPA receptor): 96%
Sigma receptor
  Sigma Inh. [%]: 93%

## Cc1ccc(-c2noc(-c3ccccc3OCCN(C)C)n2)cc1 [Example 17, 5-{2-[2-(N,N-Dimethylamino)-ethyl]oxy-phenyl}-3-(4-methyl-phenyl)-1,2,4-oxadiazole]
[1]
  Na+-channel Inh. [%] ([3H]-BTX): 80%
Histamine H1 receptor
  inhibition at 10 µM: 78%
AMPA receptor
  AMPA Inh. [%] (inhibiting the cainate-induced signal at the AMPA receptor): 97%
Sigma receptor
  Sigma Inh. [%]: 65%

## CN(C)CCOc1ccccc1-c1nc(-c2ccc(Cl)cc2)no1 [Example 18, 5-{2-[2-(N,N-Dimethylamino)-ethyl]oxy-phenyl}-3-(4-chlor-phenyl)-1,2,4-oxadiazole]
[1]
  Na+-channel Inh. [%] ([3H]-BTX): 85%
Histamine H1 receptor
  inhibition at 10 µM: 94%
AMPA receptor
  AMPA Inh. [%] (inhibiting the cainate-induced signal at the AMPA receptor): 80%
Sigma receptor
  Sigma Inh. [%]: 80%

## COc1ccc(-c2noc(-c3ccccc3OCCN(C)C)n2)cc1 [Example 19, 5-{2-[2-(N,N-Dimethylamino)-ethyl]oxy-phenyl}-3-(4-methoxy-phenyl)-1,2,4-oxadiazole]
[1]
  Na+-channel Inh. [%] ([3H]-BTX): 83%
Histamine H1 receptor
  inhibition at 10 µM: 95%
AMPA receptor
  AMPA Inh. [%] (inhibiting the cainate-induced signal at the AMPA receptor): 86%
Sigma receptor
  Sigma Inh. [%]: 74%

## c1ccc(CNCCOc2ccccc2-c2nc(-c3ccccc3)no2)cc1 [Example 20, 5-{2-[2-(N-benzylamino)ethyl]-oxy-phenyl}-3-phenyl-1,2,4-oxadiazole]
[1]
  Na+-channel Inh. [%] ([3H]-BTX): 100%
Histamine H1 receptor
  inhibition at 10 µM: 19%
AMPA receptor
  AMPA Inh. [%] (inhibiting the cainate-induced signal at the AMPA receptor): 90%
Sigma receptor
  Sigma Inh. [%]: 84%

## CC(C)NCCOc1ccccc1-c1nc(-c2ccccc2)no1 [Example 21, 5-{2-[2-(N-Isopropylamino)ethyl]-oxy-phenyl}-3-phenyl-1,2,4-oxadiazole]
[1]
  Na+-channel Inh. [%] ([3H]-BTX): 100%
Histamine H1 receptor
  inhibition at 10 µM: 75%
AMPA receptor
  AMPA Inh. [%] (inhibiting the cainate-induced signal at the AMPA receptor): 98%
Sigma receptor
  Sigma Inh. [%]: 76%

## CNCCOc1ccccc1-c1nc(-c2ccccc2)no1 [Example 22, 5-{2-[2-(N-methylamino)ethyl]-oxy-phenyl}-3-phenyl-1,2,4-oxadiazole]
[1]
  Na+-channel Inh. [%] ([3H]-BTX): 94%
Histamine H1 receptor
  inhibition at 10 µM: 64%
AMPA receptor
  AMPA Inh. [%] (inhibiting the cainate-induced signal at the AMPA receptor): 94%
Sigma receptor
  Sigma Inh. [%]: 78%

## CCNCCOc1ccccc1-c1nc(-c2ccccc2)no1 [Example 23, 5-{2-[2-(N-ethylamino)ethyl]-oxy-phenyl}-3-phenyl-1,2,4-oxadiazole]
[1]
  Na+-channel Inh. [%] ([3H]-BTX): 99%
Histamine H1 receptor
  inhibition at 10 µM: 63%
AMPA receptor
  AMPA Inh. [%] (inhibiting the cainate-induced signal at the AMPA receptor): 93%
Sigma receptor
  Sigma Inh. [%]: 79%

## NCCOc1ccccc1-c1nc(-c2ccccc2)no1 [Example 24, 5-[2-(2-aminoethyl)oxy-phenyl]-3-phenyl-1,2,4-oxadiazole]
[1]
  Na+-channel Inh. [%] ([3H]-BTX): 89%
Histamine H1 receptor
  inhibition at 10 µM: 27%
AMPA receptor
  AMPA Inh. [%] (inhibiting the cainate-induced signal at the AMPA receptor): 96%
Sigma receptor
  Sigma Inh. [%]: 52%

## CN(C)CCOc1ccccc1-c1nc(-c2ccccc2Cl)no1 [Example 27, 5-{2-[2-(N,N-Dimethylamino)-ethyl]oxy-phenyl}-3-(2-chloro-phenyl)-1,2,4-oxadiazole]
[1]
  Na+-channel Inh. [%] ([3H]-BTX): 79%
Histamine H1 receptor
  inhibition at 10 µM: 90%
AMPA receptor
  AMPA Inh. [%] (inhibiting the cainate-induced signal at the AMPA receptor): 91%
Sigma receptor
  Sigma Inh. [%]: 84%

## CN(C)CCOc1ccccc1-c1nc(-c2ccc(Cl)cc2Cl)no1 [Example 28, 5-{2-[2-(N,N-Dimethylamino)-ethyl]oxy-phenyl}-3-(2,4-dichloro-phenyl)-1,2,4-oxadiazole]
[1]
  Na+-channel Inh. [%] ([3H]-BTX): 91%
Histamine H1 receptor
  inhibition at 10 µM: 92%
AMPA receptor
  AMPA Inh. [%] (inhibiting the cainate-induced signal at the AMPA receptor): 87%
Sigma receptor
  Sigma Inh. [%]: 84%

## CN(C)CCOc1ccccc1-c1nc(Cc2ccccc2)no1 [Example 31, 5-{2-[2-(N,N-Dimethylamino)-ethyl]oxy-phenyl}-3-benzyl-1,2,4-oxadiazole]
[1]
  Na+-channel Inh. [%] ([3H]-BTX): 82%
Histamine H1 receptor
  inhibition at 10 µM: 94%
AMPA receptor
  AMPA Inh. [%] (inhibiting the cainate-induced signal at the AMPA receptor): 23%
Sigma receptor
  Sigma Inh. [%]: 77%

## Cc1ccccc1-c1noc(-c2ccccc2OCCN(C)C)n1 [Example 33]
[1]
  Na+-channel Inh. [%] ([3H]-BTX): 84%
Histamine H1 receptor
  inhibition at 10 µM: 87%
AMPA receptor
  AMPA Inh. [%] (inhibiting the cainate-induced signal at the AMPA receptor): 87%
Sigma receptor
  Sigma Inh. [%]: 77%

## CN(C)CCOc1ccccc1-c1nc(-c2ccccc2F)no1 [Example 34]
[1]
  Na+-channel Inh. [%] ([3H]-BTX): 88%
Histamine H1 receptor
  inhibition at 10 µM: 96%
AMPA receptor
  AMPA Inh. [%] (inhibiting the cainate-induced signal at the AMPA receptor): 97%
Sigma receptor
  Sigma Inh. [%]: 75%

## Cc1cccc(-c2noc(-c3ccccc3OCCN(C)C)n2)c1 [Example 37, 5-{2-[2-(N,N-Dimethylamino)-ethyl]oxy-phenyl}-3-(3-methyl-phenyl)-1,2,4-oxadiazole]
[1]
  Na+-channel Inh. [%] ([3H]-BTX): 93%
Histamine H1 receptor
  inhibition at 10 µM: 93%
AMPA receptor
  AMPA Inh. [%] (inhibiting the cainate-induced signal at the AMPA receptor): 93%
Sigma receptor
  Sigma Inh. [%]: 82%

## CN1CCN(c2ccccc2-c2nc(-c3ccccc3)no2)CC1 [Example 40, 5-[2-(4-methylpiperazin-1yl)-phenyl]-3-phenyl-1,2,4-oxadiazole]
[1]
  Na+-channel Inh. [%] ([3H]-BTX): 88%
Histamine H1 receptor
  inhibition at 10 µM: 99%
AMPA receptor
  AMPA Inh. [%] (inhibiting the cainate-induced signal at the AMPA receptor): 37%
Sigma receptor
  Sigma Inh. [%]: 76%

## CN(C)CCOc1ccccc1-c1nc(-c2cccs2)no1 [Example 42, 5-{2-[2-(N,N-Dimethylamino)-ethyl]oxy-phenyl}-3-(2-thienyl)-1,2,4-oxadiazole]
[1]
  Na+-channel Inh. [%] ([3H]-BTX): 89%
Histamine H1 receptor
  inhibition at 10 µM: 94%
AMPA receptor
  AMPA Inh. [%] (inhibiting the cainate-induced signal at the AMPA receptor): 79%
Sigma receptor
  Sigma Inh. [%]: 57%

## CN(C)CCOc1ccccc1-c1nc(-c2ccccn2)no1 [Example 43, 5-{2-[2-(N,N-Dimethylamino)-ethyl]oxy-phenyl}-3-(2-pyridyl)-1,2,4-oxadiazole]
[1]
  Na+-channel Inh. [%] ([3H]-BTX): 72%
Histamine H1 receptor
  inhibition at 10 µM: 86%
AMPA receptor
  AMPA Inh. [%] (inhibiting the cainate-induced signal at the AMPA receptor): 77%
Sigma receptor
  Sigma Inh. [%]: 0%

## CN(C)CCOc1ccccc1-c1nc(-c2cccc(C(F)(F)F)c2)no1 [Example 44, 5-{2-[2-(N,N-Dimethylamino)-ethyl]oxy-phenyl}-3-(3-rifluoromethylphenyl)-1,2,4-oxadiazole]
[1]
  Na+-channel Inh. [%] ([3H]-BTX): 89%
Histamine H1 receptor
  inhibition at 10 µM: 74%
AMPA receptor
  AMPA Inh. [%] (inhibiting the cainate-induced signal at the AMPA receptor): 62%
Sigma receptor
  Sigma Inh. [%]: 93%

## CN(C)CCOc1ccccc1-c1nc(-c2ccc(F)cc2)no1 [Example 45, 5-{2-[2-(N,N-Dimethylamino)-ethyl]oxy-phenyl}-3-(4-fluoro-phenyl)-1,2,4-oxadiazole]
[1]
  Na+-channel Inh. [%] ([3H]-BTX): 79%
Histamine H1 receptor
  inhibition at 10 µM: 98%
AMPA receptor
  AMPA Inh. [%] (inhibiting the cainate-induced signal at the AMPA receptor): 64%
Sigma receptor
  Sigma Inh. [%]: 85%

## CN(C)CCOc1ccccc1-c1nc(-c2ccc(N)cc2)no1 [Example 47, 5-{2-[2-(N,N-Dimethylamino)-ethyl]oxy-phenyl}-3-(4-amino-phenyl)-1,2,4-oxadiazole]
[1]
  Na+-channel Inh. [%] ([3H]-BTX): 74%
Histamine H1 receptor
  inhibition at 10 µM: 82%
AMPA receptor
  AMPA Inh. [%] (inhibiting the cainate-induced signal at the AMPA receptor): 59%
Sigma receptor
  Sigma Inh. [%]: 56%

## CN(C)CCOc1ccccc1-c1nc(-c2ccsc2)no1 [Example 54, 5-{2-[2-(N,N-Dimethylamino)-ethyl]oxy-phenyl}-3-(3-thienyl)-1,2,4-oxadiazole]
[1]
  Na+-channel Inh. [%] ([3H]-BTX): 62%
Histamine H1 receptor
  inhibition at 10 µM: 95%
Sigma receptor
  Sigma Inh. [%]: 68%

## CN(C)CCOc1ccccc1-c1nc(C2CC2)no1 [Example 55, 5-{2-[2-(N,N-Dimethylamino)-ethyl]oxy-phenyl}-3-cyclopropyl-1,2,4-oxadiazole]
AMPA receptor
  AMPA Inh. [%] (inhibiting the cainate-induced signal at the AMPA receptor): 81%
